# Publication PMC3269786 (Neuron, 2012)
# Assays:
# [1] = system: mice (ghsr+/+, ghsr−/−, ghrelin+/+, ghrelin−/−); assay: Food intake experiments in mice; format: in vivo, mouse; conditions: for food intake compared to vehicle: 0.5 mg/kg i.p.
# [2] = biological target: GHSR1a and DRD2 co-expressed in SH-SY5Y cells (SH-GHSR1a) (Homo sapiens, UniProt P14416+Q92847); format: cell-based; conditions: quinpirole 10 µM; pretreatment 5 min
# GHSR1a + DRD2 = GHSR1a + DRD2 (Homo sapiens, UniProt P14416+Q92847); format: cell-based
# SNAP-GHSR1a = SNAP-GHSR1a (Homo sapiens, UniProt Q92847); assay: Tr-FRET red-ghrelin binding assay in HEK293 cells expressing SNAP-GHSR1a
# SNAP-F279L-GHSR1a = SNAP-F279L-GHSR1a (UniProt Q92847); assay: FRET or BRET
# [3] = biological target: SNAP-GHSR1a (growth hormone secretagogue receptor / ghrelin receptor with a SNAP-tag at the N-terminus) (UniProt Q92847); assay: FRET or BRET
# SNAP-M213K-GHSR1a = SNAP-M213K-GHSR1a (UniProt Q92847); assay: FRET or BRET
# humans = conditions: ref Korner et al., 2003; cited from earlier work
# rats = conditions: 6 day central infusion, ref Petersen et al., 2009; cited from earlier work
# [4] = system: primary cultures of hypothalamic neurons; assay: Fluo-4 Ca2+ mobilization in primary hypothalamic neurons; format: cell-based, mouse; conditions: quinpirole 10 µM; ghrelin 100 nM after washing
# Chain of GHSR1a + DRD2 (Q92847 whole entry): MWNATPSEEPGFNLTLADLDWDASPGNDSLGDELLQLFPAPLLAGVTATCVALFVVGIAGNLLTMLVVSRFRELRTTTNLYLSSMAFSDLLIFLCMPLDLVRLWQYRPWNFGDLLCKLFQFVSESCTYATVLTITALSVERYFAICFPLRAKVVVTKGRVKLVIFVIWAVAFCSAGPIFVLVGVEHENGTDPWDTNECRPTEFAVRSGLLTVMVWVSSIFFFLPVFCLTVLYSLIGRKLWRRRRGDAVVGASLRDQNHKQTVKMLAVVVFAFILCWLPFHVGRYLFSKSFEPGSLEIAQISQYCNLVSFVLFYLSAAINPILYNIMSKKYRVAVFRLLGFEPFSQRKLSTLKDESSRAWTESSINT
# Chain of GHSR1a + DRD2 (P14416 whole entry): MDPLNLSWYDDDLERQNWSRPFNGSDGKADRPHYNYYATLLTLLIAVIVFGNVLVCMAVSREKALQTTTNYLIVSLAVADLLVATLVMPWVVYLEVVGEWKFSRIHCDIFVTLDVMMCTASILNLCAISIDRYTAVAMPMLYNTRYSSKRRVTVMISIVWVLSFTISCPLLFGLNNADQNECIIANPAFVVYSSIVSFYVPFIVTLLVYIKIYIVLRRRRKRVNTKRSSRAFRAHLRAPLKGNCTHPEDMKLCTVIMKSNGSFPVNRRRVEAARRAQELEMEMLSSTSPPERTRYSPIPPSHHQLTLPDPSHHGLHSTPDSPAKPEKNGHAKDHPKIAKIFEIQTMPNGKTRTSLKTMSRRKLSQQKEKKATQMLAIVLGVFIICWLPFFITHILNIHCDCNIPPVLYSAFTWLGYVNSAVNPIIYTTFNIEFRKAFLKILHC
# Chain of HA-CLIP-DRD2 (P14416 whole entry): as above
# Chain of SNAP-F279L-GHSR1a (Q92847 whole entry F279L): as the sequence (Q92847 whole entry) above, with F279L counted along it
# Chain of SNAP-GHSR1a (Q92847 whole entry): as the sequence (Q92847 whole entry) above
# Chain of SNAP-GHSR1a (growth hormone secretagogue receptor / ghrelin receptor with a SNAP-tag at the N-terminus) (Q92847 whole entry): as above
# Chain of GHSR1a and DRD2 co-expressed in SH-SY5Y cells (SH-GHSR1a) (Q92847 whole entry): as above
# Chain of GHSR1a and DRD2 co-expressed in SH-SY5Y cells (SH-GHSR1a) (P14416 whole entry): as the sequence (P14416 whole entry) above
# Chain of SNAP-M213K-GHSR1a (Q92847 whole entry M213K): as the sequence (Q92847 whole entry) above, with M213K counted along it
molecule,measurement,setting,value
JMV2959,effect on cabergoline-induced suppression of food intake,"[1]; ghsr+/+ mice, JMV2959 0.2 mg/kg i.p. 30 min before cabergoline 0.5 mg/kg",prevented
same,effect on food intake in cabergoline treated mice,"[1]; ghsr−/− mice, JMV2959 0.2 mg/kg i.p. 30 min before cabergoline 0.5 mg/kg",unaffected
CCN1CCC[C@H]1CNC(=O)c1c(O)c(Cl)cc(Cl)c1OC [raclopride],effect on quinpirole-induced Ca2+ signal,[2],Attenuation of the Ca^2+ signal
same,effect on dopamine-induced Ca2+ signaling,GHSR1a + DRD2,dose-dependently inhibited
Oc1cc2c(c(Cl)c1O)CCNCC2c1ccccc1 (stereo not drawn) [SKF81297],effect of preincubation on ghrelin-induced Ca2+ response,"GHSR1a + DRD2; 30 min preincubation, ghrelin 100 nM",fails to inhibit
CN1CCc2cc(Cl)c(O)cc2[C@@H](c2ccccc2)C1 [SCH23390],effect on dopamine-induced Ca2+ signaling,GHSR1a + DRD2,ineffective
des-acyl ghrelin,inhibition of red ghrelin binding,SNAP-GHSR1a,ineffective
HA-CLIP-DRD2 (from UniProt P14416 1-443) (receptor),FRET50,SNAP-F279L-GHSR1a,0.49
same,FRET50,[3],0.086
same,FRET50,SNAP-M213K-GHSR1a,0.79
CCN1CCCC1CNC(=O)c1cc(S(N)(=O)=O)ccc1OC (stereo not drawn) [sulpiride],effect on dopamine-induced Ca2+ signaling,GHSR1a + DRD2,dose-dependently inhibited
same,effect on ghrelin-induced Ca2+ mobilization,"GHSR1a + DRD2; GHSR1a+DRD2 cells, ghrelin 100 nM",partially inhibited
C=CCN1C[C@H](C(=O)N(CCCN(C)C)C(=O)NCC)C[C@@H]2c3cccc4[nH]cc(c34)C[C@H]21 [cabergoline],agonist-induced increase of [Ca2+]i,GHSR1a + DRD2; cells co-expressing GHSR1a + DRD2,dose-dependent mobilization of Ca^2+
same,food intake compared to vehicle,[1]; ghrelin+/+ and ghrelin−/− mice,significantly reduced food intake irrespective of genotype
same,food intake compared to vehicle,"[1]; ghsr+/+ mice, within 2 h",markedly reduced
same,food intake compared to vehicle,[1]; ghsr−/− mice,unaffected
same,food intake,"[1]; mice, cabergoline 0.5 mg/kg and 2 mg/kg",dose dependent suppression of food intake
same,body weight in treated humans,humans,weight loss
NCCOB(c1ccccc1)c1ccccc1 [2-aminoethoxydiphenyl borate],effect on dopamine-induced Ca2+ signaling,GHSR1a + DRD2,blocked
"[D-Arg1,D-Phe5,D-Trp7,9,Leu11]-substance P",food intake and weight gain,rats,modest reductions in food intake and weight gain
CCCCCCCC(=O)OC[C@H](NC(=O)[C@H](CO)NC(=O)CN)C(=O)N[C@@H](Cc1ccccc1)C(=O)N[C@@H](CC(C)C)C(=O)N[C@@H](CO)C(=O)N1CCC[C@H]1C(=O)N[C@@H](CCC(=O)O)C(=O)N[C@@H](Cc1c[nH]cn1)C(=O)N[C@@H](CCC(N)=O)C(=O)N[C@@H](CCCNC(=N)N)C(=O)N[C@H](C(=O)N[C@@H](CCC(N)=O)C(=O)N[C@@H](CCC(N)=O)C(=O)N[C@@H](CCCNC(=N)N)C(=O)N[C@@H](CCCCN)C(=O)N[C@@H](CCC(=O)O)C(=O)N[C@@H](CO)C(=O)N[C@@H](CCCCN)C(=O)N[C@@H](CCCCN)C(=O)N1CCC[C@H]1C(=O)N1CCC[C@H]1C(=O)N[C@@H](C)C(=O)N[C@@H](CCCCN)C(=O)N[C@@H](CC(C)C)C(=O)N[C@@H](CCC(N)=O)C(=O)N1CCC[C@H]1C(=O)N[C@@H](CCCNC(=N)N)C(=O)O)C(C)C [ghrelin],Ca2+ response in primary hypothalamic neurons,[4],immediate Ca^2+ response
